Results taken from patent US20200316038A1, “METHODS AND COMPOSITIONS FOR TREATING UREA CYCLE DISORDERS, IN PARTICULAR OTC DEFICIENCY” (CAMP4 THERAPEUTICS CORPORATION, priority 2017, published 2020).
Like-named read-outs stand apart in the source and are kept apart here.

Columns and labels:
[1] = system: multiple urea cycle-related genes; assay: RNA-seq, compounds that modulate multiple urea cycle-related genes; type: cell-based; details: primary human hepatocytes; for Up-regulated Genes: urea cycle-related genes significantly increased by the compound
[2] = system: CPS1; assay: RNA-seq, CPS1 expression in compound-treated primary human hepatocytes; type: cell-based
[3] = system: ASL; assay: RNA-seq, ASL expression in compound-treated primary human hepatocytes; type: cell-based
[4] = system: ARG1; assay: RNA-seq, ARG1 expression in compound-treated primary human hepatocytes; type: cell-based
[5] = system: SLC25A15; assay: RNA-seq, SLC25A15 expression in compound-treated primary human hepatocytes; type: cell-based; details: compounds that significantly increase SLC25A15 expression
[6] = system: ASS1; assay: RNA-seq, ASS1 expression in compound-treated primary human hepatocytes; type: cell-based
[7] = system: OTC; assay: RNA-seq, OTC expression in compound-treated primary human hepatocytes; type: cell-based
[8] = system: NAGS
[9] = system: OTC; assay: OTC expression modulated by compounds (OTC/Geo Mean of HKs, DMSO = 1); type: cell-based, human; details: OTC expression; compound at 10 uM final concentration
Procedure: Analysis of the fold changes in expression as measured by qRT-PCR were performed using the technique below. The control was DMSO, and the treatment was the selected compound (CPD). The internal control was GAPDH or B-Actin, and the gene of interest is the target. First, the averages of the 4 conditions were calculated for normalization: DMSO:GAPDH, DMSO:Target, CPD: GAPDH, and CPD:Target. Next, the ΔCT of both control and treatment were calculated to normalize to internal control (GAPDH) using (DMSO:Target)−(DMSO:GAPDH)=ΔCT control and (CPD:Target)−(CPD: GAPDH)=ΔCT experimental. Then, the ΔΔCT was calculated by ΔCT experimental−ΔCT control.

[10] = RNA-seq, primary human hepatocytes, compounds that significantly increase ASL expression
[11] = RNA-seq, primary human hepatocytes, compounds that significantly increase ARG1 expression
[12] = RNA-seq, primary human hepatocytes, compounds that significantly increase NAGS expression

Row | Molecule | number of urea cycle genes whose expression was significantly up-regulated [1] | Up-regulated Genes [1] | Fold change (Log 2) vs untreated [2] [Log 2] | ASL expression, Fold change (Log 2) vs untreated [3, 10] [Log 2] | ARG1 expression, Fold change (Log 2) vs untreated [4, 11] [Log 2] | SLC25A15 expression, Fold change (Log 2) vs untreated [5] [Log 2] | Fold change (Log 2) vs untreated [6] [Log 2] | ASL expression, Fold change (Log 2) vs untreated [3] [Log 2] | ARG1 expression, Fold change (Log 2) vs untreated [4] [Log 2] | Fold change (Log 2) vs untreated [7] [Log 2] | NAGS expression, Fold change (Log 2) vs untreated [8, 12] [Log 2] | Max Value (OTC/Geo Mean of HKs; DMSO = 1) [9] | NAGS expression, Fold change (Log 2) vs untreated [8] [Log 2]
1 | Cc1cc(-c2nc(-c3ccc(OC(F)(F)F)cc3)no2)nn1Cc1ccnc(N2CCN(C3CC3)CC2)c1 [BAY 87-2243] | three | CPS1, ASL, ARG1 | 1.81 | 0.58 | 1.09 | – | – | – | – | – | – | – | –
2 | C[C@]12C[C@H](O)[C@H]3[C@@H](CCC4=CC(=O)CC[C@@]43C)[C@@H]1CC[C@@H]2C(=O)CO [Corticosterone] | – | – | – | – | – | 0.96 | – | – | – | – | – | – | –
3 | C[C@]12CC[C@H]3[C@@H](CCC4=CC(=O)CC[C@@]43C)[C@@H]1CC[C@@H]2C(=O)CO [Deoxycorticosterone] | four | CPS1, ASS1, ARG1, SLC25A15 | 3.79 | – | 1.37 | – | 0.6 | – | – | – | – | – | –
4 | CNC[C@H](O)c1ccc(O)c(O)c1 [Epinephrine] | five | – | 4.85 | – | – | 1.14 | 1.08 | 0.6 | 2.28 | – | – | – | –
5 | COc1cccc2c1C(=O)c1c(O)c3c(c(O)c1C2=O)C[C@@](O)(/C(CO)=N/NC(=O)CCCCCN1C(=O)C=CC1=O)C[C@@H]3O[C@H]1C[C@H](N)[C@H](O)[C@H](C)O1 [INNO-206 (aldoxorubicin), aldoxorubicin] | three | NAGS, ASS1, OTC | – | – | – | – | 0.58 | – | – | 0.87 | 1.63 | 2.36 | –
6 | O=C1NC(=O)/C(=C/c2cccc(C(F)(F)F)c2)S1 [SMI-4a] | – | – | – | – | – | – | 0.69 | – | – | – | – | – | 1.25
7 | CN(C)[C@@H]1C(O)=C(C(N)=O)C(=O)[C@@]2(O)C(O)=C3C(=O)c4c(O)c(NC(=O)CN5CCCC5)cc(F)c4C[C@H]3C[C@@H]12 [TP-434 (Eravacycline), Eravacycline] | – | – | – | – | – | – | 0.76 | – | – | – | 1.5 | – | –
8 | O=C1CCC(N2C(=O)c3ccccc3C2=O)C(=O)N1 (centres unmarked) [Thalidomide] | five | NAGS, CPS1, ALS, OTC, ARG1 | 1.02 | 0.56 | 1.16 | – | – | – | – | 1.21 | – | – | 1.1
9 | COc1nc(N)nc2c1ncn2[C@@H]1O[C@H](COP(=O)(N[C@@H](C)C(=O)OCC(C)(C)C)Oc2cccc3ccccc23)[C@@H](O)[C@@]1(C)O (some centres unmarked) [bms-986094 (inx-189)] | – | – | – | – | – | 1.18 | – | – | – | – | – | – | –
10 | Activin | four | NAGS, CPS1, OTC, ARG1 | 2.23 | – | 2.01 | – | – | – | – | 0.94 | – | – | 0.69
11 | FGF: Fibroblast Growth Factor-acidic (FGF-1); FGFR activator | three | CPS1, OTC, ARG1 | 1.72 | – | 1.24 | – | – | – | – | 0.56 | – | – | –
12 | HGF/SF: Hepatocyte Growth Factor, scatter factor; c-Met activator | four | NAGS, CPS1, OTC, ARG1 | 2.02 | – | 1.51 | – | – | – | – | 0.56 | – | – | 0.56
13 | PDGF | four | CPS1, OTC, ARG1, SLC25A15 | 2.12 | – | 1.85 | 0.71 | – | – | – | 0.77 | – | – | –
14 | TNF-α | four | CPS1, ASS1, OTC, ARG1 | 2.31 | – | 1.87 | – | 0.58 | – | – | 0.87 | – | – | –
15 | Wnt3a: WNT family secreted signaling protein; FRIZZLED activator (protein, UniProt P56704 19-352, looked up) Protein Wnt-3a: SYPIWWSLAVGPQYSSLGSQPILCASIPGLVPKQLRFCRNYVEIMPSVAEGIKIGIQECQHQFRGRRWNCTTVHDSLAIFGPVLDKATRESAFVHAIASAGVAFAVTRSCAEGTAAICGCSSRHQGSPGKGWKWGGCSEDIEFGGMVSREFADARENRPDARSAMNRHNNEAGRQAIASHMHLKCKCHGLSGSCEVKTCWWSQPDFRAIGDFLKDKYDSASEMVVEKHRESRGWVETLRPRYTYFKVPTERDLVYYEASPNFCEPNPETGSFGTRDRTCNVSSHGIDGCDLLCCGRGHNARAERRREKCRCVFHWCCYVSCQECTRVYDVHTCK | four | CPS1, OTC, ARG1, SLC25A15 | 2.6 | – | 2.07 | 0.7 | – | – | – | 0.92 | – | – | –
16 | Nodal: 13 kDa member of the TGF-B superfamily (protein, UniProt Q96S42 238-347, looked up) Nodal homolog: HHLPDRSQLCRKVKFQVDFNLIGWGSWIIYPKQYNAYRCEGECPNPVGEEFHPTNHAYIQSLLKRYQPHRVPSTCCAPVKTKPLSMLYVDNGRVLLDHHKDMIVEECGCL | three | CPS1, OTC, ARG1 | 2.44 | – | 2.05 | – | – | – | – | 0.68 | – | – | –
17 | GDF2 (BMP9): member of BMP family and the TGF-B superfamily (protein, UniProt Q9UK05 320-429, looked up) Growth/differentiation factor …: SAGAGSHCQKTSLRVNFEDIGWDSWIIAPKEYEAYECKGGCFFPLADDVTPTKHAIVQTLVHLKFPTKVGKACCVPTKLSPISVLYKDDMGVPTLKYHYEGMSVAECGCR | five | – | 3.46 | – | 1.79 | 1.09 | 1.34 | – | – | – | – | – | 0.63
18 | Anti mullerian hormone: member of the TGF-B gene family (protein, UniProt P03971 452-560, looked up) Muellerian-inhibiting factor: SAGATAADGPCALRELSVDLRAERSVLIPETYQANNCQGVCGWPQSDRNPRYGNHVVLLLKMQVRGAALARPPCCVPTAYAGKLLISLSEERISAHHVPNMVATECGCR | three | CPS1, OTC, ARG1 | 2.35 | – | 2.06 | – | – | – | – | 0.81 | – | – | –
